Results on 6 compounds are retold here after ChEMBL document CHEMBL3596137, “N-Substituted pyrazole-3-carboxamides as inhibitors of human 15-lipoxygenase” (Bioorg Med Chem Lett, 2015).

Activity calls are given as the source filed them. No cut-off for these calls is given here.

In assay [1] the target is T1, Polyunsaturated fatty acid lipoxygenase ALOX15 (Homo sapiens, UniProt P16050).
T1 sequence (P16050 whole entry): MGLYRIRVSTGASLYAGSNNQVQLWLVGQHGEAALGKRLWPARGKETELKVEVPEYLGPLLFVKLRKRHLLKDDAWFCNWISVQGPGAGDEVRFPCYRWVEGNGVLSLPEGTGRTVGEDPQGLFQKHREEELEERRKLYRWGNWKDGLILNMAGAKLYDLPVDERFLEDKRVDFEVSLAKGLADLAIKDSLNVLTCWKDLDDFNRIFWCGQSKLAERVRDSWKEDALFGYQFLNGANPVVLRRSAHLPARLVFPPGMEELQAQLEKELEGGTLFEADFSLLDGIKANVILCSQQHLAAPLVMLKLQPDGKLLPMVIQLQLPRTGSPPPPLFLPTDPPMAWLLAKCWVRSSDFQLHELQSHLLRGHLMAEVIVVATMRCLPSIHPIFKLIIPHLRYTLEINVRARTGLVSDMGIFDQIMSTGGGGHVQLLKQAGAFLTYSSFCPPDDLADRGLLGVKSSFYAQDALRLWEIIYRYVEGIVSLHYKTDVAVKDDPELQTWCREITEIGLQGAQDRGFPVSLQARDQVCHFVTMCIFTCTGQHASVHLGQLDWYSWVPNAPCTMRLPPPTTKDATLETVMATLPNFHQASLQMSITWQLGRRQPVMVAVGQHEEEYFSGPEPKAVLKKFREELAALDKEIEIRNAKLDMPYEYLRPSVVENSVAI
Description: Inhibition of human 15-LOX-1 using arachidonic acid as substrate.

For assay [2], the target named is T1, Polyunsaturated fatty acid lipoxygenase ALOX15. Put plainly: Inhibition of human 15-LOX-1 using arachidonic acid as substrate by cell based assay.
For assay [3], the target named is T2, Polyunsaturated fatty acid lipoxygenase ALOX12 (Homo sapiens) (UniProt P18054).
T2 sequence (whole entry): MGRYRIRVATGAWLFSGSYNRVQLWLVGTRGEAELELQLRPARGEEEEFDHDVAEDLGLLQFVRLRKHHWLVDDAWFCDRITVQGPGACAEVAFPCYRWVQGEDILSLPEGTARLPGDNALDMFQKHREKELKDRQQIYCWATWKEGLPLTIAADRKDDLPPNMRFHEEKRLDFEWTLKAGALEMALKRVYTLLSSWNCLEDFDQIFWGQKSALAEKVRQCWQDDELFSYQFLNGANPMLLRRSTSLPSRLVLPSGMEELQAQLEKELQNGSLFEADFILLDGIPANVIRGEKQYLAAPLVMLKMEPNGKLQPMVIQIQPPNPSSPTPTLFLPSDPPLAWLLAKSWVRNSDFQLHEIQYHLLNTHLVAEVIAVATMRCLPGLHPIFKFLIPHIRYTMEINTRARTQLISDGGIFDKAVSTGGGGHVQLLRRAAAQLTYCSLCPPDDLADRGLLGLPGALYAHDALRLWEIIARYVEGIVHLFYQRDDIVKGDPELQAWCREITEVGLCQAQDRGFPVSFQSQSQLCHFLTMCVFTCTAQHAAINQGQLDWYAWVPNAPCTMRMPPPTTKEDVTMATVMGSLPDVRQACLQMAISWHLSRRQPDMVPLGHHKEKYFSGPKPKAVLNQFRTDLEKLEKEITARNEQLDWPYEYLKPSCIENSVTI
Description: Inhibition of 12-LOX (unknown origin) using arachidonic acid as substrate at 10 uM.

Assay [4] concerns the target Prostaglandin G/H synthase 1 (Homo sapiens) (UniProt P23219). Put plainly: Inhibition of COX1 (unknown origin) using arachidonic acid as substrate at 10 uM.
The target in assay [5] is T3, Polyunsaturated fatty acid 5-lipoxygenase (Homo sapiens) (UniProt P09917).
T3 sequence (whole entry): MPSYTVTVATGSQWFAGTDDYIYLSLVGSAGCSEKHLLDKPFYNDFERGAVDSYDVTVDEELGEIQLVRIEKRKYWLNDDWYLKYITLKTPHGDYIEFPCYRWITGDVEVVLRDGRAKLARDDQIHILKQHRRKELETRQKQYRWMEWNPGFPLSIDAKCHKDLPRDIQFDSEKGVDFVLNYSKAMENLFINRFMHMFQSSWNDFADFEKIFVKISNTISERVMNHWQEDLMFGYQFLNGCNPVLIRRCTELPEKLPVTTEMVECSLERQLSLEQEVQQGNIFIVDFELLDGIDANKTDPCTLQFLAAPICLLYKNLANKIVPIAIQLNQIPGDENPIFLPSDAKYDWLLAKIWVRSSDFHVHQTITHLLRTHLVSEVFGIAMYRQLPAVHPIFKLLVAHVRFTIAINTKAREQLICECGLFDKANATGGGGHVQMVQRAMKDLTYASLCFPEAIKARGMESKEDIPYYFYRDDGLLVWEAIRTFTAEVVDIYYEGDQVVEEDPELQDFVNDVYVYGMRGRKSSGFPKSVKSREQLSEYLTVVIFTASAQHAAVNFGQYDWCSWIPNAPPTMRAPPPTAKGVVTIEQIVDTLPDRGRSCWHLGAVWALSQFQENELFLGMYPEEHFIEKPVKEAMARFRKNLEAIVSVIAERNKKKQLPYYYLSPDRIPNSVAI
Put plainly: Inhibition of 5-LOX (unknown origin) using arachidonic acid as substrate at 10 uM.

Assay [6] deals with T4, Prostaglandin G/H synthase 2 (Homo sapiens) (UniProt P35354).
T4 sequence (whole entry): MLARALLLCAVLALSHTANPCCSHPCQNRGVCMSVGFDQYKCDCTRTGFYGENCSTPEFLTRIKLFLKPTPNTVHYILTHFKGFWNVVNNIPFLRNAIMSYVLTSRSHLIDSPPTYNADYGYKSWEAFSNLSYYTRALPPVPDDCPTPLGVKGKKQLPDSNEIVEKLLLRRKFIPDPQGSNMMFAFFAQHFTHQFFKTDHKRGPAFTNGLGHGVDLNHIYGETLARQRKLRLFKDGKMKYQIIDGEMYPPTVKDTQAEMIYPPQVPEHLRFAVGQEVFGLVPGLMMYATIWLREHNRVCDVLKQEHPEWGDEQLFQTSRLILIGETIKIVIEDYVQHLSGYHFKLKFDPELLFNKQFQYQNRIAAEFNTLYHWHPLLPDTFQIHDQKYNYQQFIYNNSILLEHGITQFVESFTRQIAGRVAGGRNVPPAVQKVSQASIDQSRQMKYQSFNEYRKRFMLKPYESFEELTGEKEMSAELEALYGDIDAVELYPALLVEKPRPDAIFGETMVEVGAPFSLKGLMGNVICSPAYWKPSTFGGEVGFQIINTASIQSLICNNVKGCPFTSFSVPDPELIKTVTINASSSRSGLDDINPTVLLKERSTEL
Put plainly: Inhibition of COX2 (unknown origin) using arachidonic acid as substrate at 10 uM.

In assay [7] the target is T3, Polyunsaturated fatty acid 5-lipoxygenase (Homo sapiens). Description: Inhibition of 5-LOX (unknown origin) using arachidonic acid as substrate at 10 uM by cell based assay.

Chain of Prostaglandin G/H synthase 1 (Homo sapiens) (P23219 whole entry): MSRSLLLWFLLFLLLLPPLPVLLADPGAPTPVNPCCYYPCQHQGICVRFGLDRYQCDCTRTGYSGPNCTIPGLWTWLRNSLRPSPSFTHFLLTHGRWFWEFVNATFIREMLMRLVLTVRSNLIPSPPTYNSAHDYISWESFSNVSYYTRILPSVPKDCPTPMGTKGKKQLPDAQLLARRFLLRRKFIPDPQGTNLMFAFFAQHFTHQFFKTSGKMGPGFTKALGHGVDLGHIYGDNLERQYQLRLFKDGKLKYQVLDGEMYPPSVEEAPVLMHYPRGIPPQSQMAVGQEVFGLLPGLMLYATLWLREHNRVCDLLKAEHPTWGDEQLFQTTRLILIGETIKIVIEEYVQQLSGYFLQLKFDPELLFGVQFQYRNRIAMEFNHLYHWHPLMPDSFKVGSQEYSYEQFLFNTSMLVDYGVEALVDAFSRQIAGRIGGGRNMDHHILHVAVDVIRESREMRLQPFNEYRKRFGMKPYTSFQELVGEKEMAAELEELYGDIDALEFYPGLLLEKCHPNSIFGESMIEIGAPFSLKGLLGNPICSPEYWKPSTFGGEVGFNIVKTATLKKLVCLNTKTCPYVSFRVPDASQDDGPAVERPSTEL

`CCCCCCNC(=O)n1cc(CCCC)c(C(=O)Nc2ccc(F)cc2Cl)n1`: the IC50 result in assay [1] and in assay [2] was “Not Active” in each case.
As for `O=C(Nc1ccccc1Cl)c1ccn(C(=O)c2cccc(Cl)c2)n1`, the inhibition (commonly the percentage by which the read-out fell short of the control) in assay [3] was 18%; in assay [4], 11%; in assay [5], 8%; in assay [7], 16%. Also, the inhibition entry in assay [6] was “inactive”.
Consider `O=C(Nc1ccc(F)cc1Cl)c1ccn(C(=O)Cc2ccccc2)n1`, for which, in assay [2], the IC50 (in general, the concentration that gives 50% inhibition) was “Not Active”.
`Cn1cc(Cl)c(C(=O)Nc2ccc(F)cc2Cl)n1`: the half-maximal inhibitory concentration (IC50) result in assay [2] is given as “Not Active”.
Same read-out and setting: in the case of `CN(C)S(=O)(=O)n1ccc(C(=O)Nc2ccc(F)cc2Cl)n1` it was “Not Active”.
Turning to `O=C(Nc1ccc(F)cc1Cl)c1ccn(S(=O)(=O)c2cccc(C(F)(F)F)c2)n1`, the concentration for half-maximal inhibition (IC50) in assay [1] (read-out: IC50) was 1940 nM; in assay [2] (read-out: IC50), 1060 nM.
